Reference: patent US8852876B2, “Label free biosensors and cells” (Corning Incorporated, priority 2008, dated 2014)
Blank lines part the entries; values can stand above or below the compound they belong to.

Experiments:
A3 receptor = biological target: T1, A3 receptor (Rattus norvegicus, UniProt P28647); settings: read-out: Affinity; cited from earlier work
T1 sequence (P28647 1-320): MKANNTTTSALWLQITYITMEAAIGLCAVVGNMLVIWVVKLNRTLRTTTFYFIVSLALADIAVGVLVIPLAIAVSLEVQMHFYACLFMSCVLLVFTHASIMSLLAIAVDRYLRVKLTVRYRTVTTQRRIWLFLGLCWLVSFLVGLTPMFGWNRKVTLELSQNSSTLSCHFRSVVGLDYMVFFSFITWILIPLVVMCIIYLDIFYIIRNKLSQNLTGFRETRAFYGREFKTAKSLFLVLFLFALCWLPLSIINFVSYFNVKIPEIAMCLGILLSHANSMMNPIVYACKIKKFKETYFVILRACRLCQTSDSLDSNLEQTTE

P2Y receptors = assay: DMR optical biosensor assay, agonist efficacy; type: cell-based, human; settings: quiescent A431; n=3; read-out: Apparent EC50 (P-DMR amplitude, Gq-type)
[1] = tested on: endogenous GPCRs in A431 cells; assay: DMR optical biosensor profiling of GPCR agonists; type: cell-based, human; settings: quiescent A431; first class = Gq-type, second = Gs-type, third = Gi-type, fourth = no significant DMR
[2] = biological target: T2, protease activated receptors PAR1 and PAR2 (Homo sapiens, UniProt P25116); type: cell-based; settings: 40 unit/ml thrombin; modulators 10 μM
T2 construct: A431 cells which endogenously express PAR1 and PAR2; endogenous in cells; host or cells: A431
T2 sequence (P25116 22-425): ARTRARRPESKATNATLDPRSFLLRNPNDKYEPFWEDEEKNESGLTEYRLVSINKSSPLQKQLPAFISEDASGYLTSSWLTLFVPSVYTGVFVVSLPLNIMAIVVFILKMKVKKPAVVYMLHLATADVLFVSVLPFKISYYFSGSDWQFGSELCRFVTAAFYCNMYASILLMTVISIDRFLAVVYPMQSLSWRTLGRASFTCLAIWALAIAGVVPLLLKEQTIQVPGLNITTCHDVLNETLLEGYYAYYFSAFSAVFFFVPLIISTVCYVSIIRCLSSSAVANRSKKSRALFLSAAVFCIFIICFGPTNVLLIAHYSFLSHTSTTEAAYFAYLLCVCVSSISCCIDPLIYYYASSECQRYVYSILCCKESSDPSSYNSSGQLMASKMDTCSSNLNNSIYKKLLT
Procedure, shortened: (§1)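 A431 cells at passage 3-5 grown in DMEM/10% FBS at 37° C, 5% CO2 to ~95% confluency (~2-4 days). Compounds and PAR agonists prepared in 1×HBSS to match the refractive index of the cell medium for dynamic mass redistribution (DMR) read-out.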

[3] = tested on: protease activated receptors PAR1 and PAR2; type: cell-based, human
Procedure, shortened: as §1

trypsin = assay: BAEE hydrolysis assay; type: biochemical
[4] = tested on: EGF-induced response of quiescent A431 cells; assay: Effect of compound pretreatment on EGF-induced DMR response; type: cell-based, human; settings: quiescent A431 cells; 32 nM EGF
Procedure, shortened: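 A431 cells were made quiescent by ≥16 h culture in no or ~0.1% FBS medium. After two HBSS/20 mM HEPES pH 7.4 buffer additions ≥15 min apart, compound was added and then stimulus. Real-time dynamic mass redistribution was tracked by resonant waveguide biosensor with angular interrogation.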

adenosine receptors = settings: read-out: Apparent EC50 (slowly increased P-DMR, Gs-type)
A2A receptor = settings: read-out: Affinity; cited from earlier work
[5] = biological target: T3, Bombesin receptor subtype 1 (BRS1) (Homo sapiens, UniProt P28336); assay: Fluo-3 Ca2+ mobilization assay; type: cell-based; settings: n=5
T3 construct: previously reported to endogenously express in A431 cells; endogenous in cells; host or cells: A431

β2 adrenergic receptor = biological target: T4, β2 adrenergic receptor (Homo sapiens, UniProt P07550); assay: DMR optical biosensor assay, agonist efficacy; type: cell-based; settings: 10 μM pretreatment; 25 nM epinephrine
T4 construct: A431 endogenously expresses high numbers of β2 receptor; endogenous in cells; host or cells: A431

CHO cells = assay: EGF stimulation of CHO cells on optical biosensor (DMR); type: cell-based, Chinese hamster; settings: CHO cells incubated with EGF
Protocol: (§2) Both A431 and CHO-K1 cells were grown in Dulbecco's modified Eagle's medium (DMEM) supplemented with 10% fetal calf serum, 100 μg/ml penicillin, and 100 μg/ml streptomycin. For cell culture, certain numbers of cells (2×10^5 to 1×10^6), either A431 or CHO-K1, were suspended in […] medium were placed in each well of a 96 well Corning Epic Biosensor microplate, and were cultured at 37° C. in air/5% CO2 for certain time until the cell density reached ˜90% and above (unless specified). The resulted cells were termed as “profilerating” cells. The “quiescent” cells were obtained by culturing the profilerating cells of desired confluencies with a medium containing no or little (˜0.1% fetal bovine serum (FBS)) for at least 16 hours.
The cells, either proliferating or quiescent cells, were either directly used for assays or washed once with the corresponding medium (both result in no obvious difference in cell responses). During the assays, the cells in 100 μl medium were subject to two 25 μl HBSS buffer containing 20 mM HEPES, pH 7.4, each separated by at least 15 minutes before 50 μl stimulus-containing solution was applied. During all these steps, a parallel angular interrogation system was used to monitor the real time kinetics of cellular responses. […]

quiescent A431 cells = assay: mβCD-induced response (cholesterol effluxing) on LID sensor; type: cell-based, human; settings: 20 nM EGF or 1000 nM H7; pretreated at least 40 minutes
Excerpt: The disclosed methods can be used to assay cholesterol transport and to, for example, screen for molecules that effect cholesterol transport, such as effluxing and uptake. […] This method is based on the measurement in real time of the effect of compounds on cholesterol effluxing. Depletion of cholesterol content on cell surface or intracellular pool results in the disappearance of microvilli located in the cell surface, resulting in the flatness of cells adherent on a surface. The flatness of cells leads to a positive DMR phase with increased signal. Based on this biological effect, we use reagents, as markers, that can either extract cholesterol from the cell surface (e.g., methyl-beta-cyclodextrin (mβCD), or high density lipoproteins (HDLs)), or bind or sequester cholesterol on the cell surface (e.g., saponin at relatively low concentrations). The changes obtained using optical biosensors can be used as an indicator of modulators that interfere with the cholesterol effuxing. FIG. 27 provides a schematic of a cholesterol pathway.

[6] = tested on: protease activated receptors PAR1 and PAR2; assay: Fluo-3 Ca2+ mobilization assay with PAR agonists; type: cell-based, human; settings: EGF 100 nM; trypsin 100 nM
Procedure, shortened: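 A431 cells (passage 3–5), serum-starved overnight, loaded with 4 μM Fluo-3 for 1 h in HBSS/20 mM HEPES pH 7.0 with 2.5 mM probenecid. PAR agonist added and calcium fluorescence recorded over 6 min at 6 s intervals, room temperature.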

EGFR = biological target: T5, EGFR (Homo sapiens, UniProt P00533); assay: EGF-induced DMR response of A431 cells on RWG optical biosensor; type: cell-based; settings: quiescent A431 cells
T5 construct: endogenously over-expressed EGFRs; endogenous in cells; host or cells: A431 (American Type Cell Culture)
Protocol: as §2
During the assays, the cells in 100 μl medium were subject to two 25 μl HBSS buffer containing 20 mM HEPES, pH 7.4, each separated by at least 15 minutes before 50 μl stimulus-containing solution was applied. […] For compound effect studies, a modified protocol was used which starts with 50 μl medium, and subject to sequential treatment: 25 μl HBSS buffer twice (each separated by at least 15 minutes), 50 μl compound solution and finally 50 μl stimulus-containing solution.

MC receptors = assay: DMR optical biosensor assay, agonist efficacy; type: cell-based, human; settings: quiescent A431; n=3; read-out: Apparent EC50 (total responses of two P-DMR events)

T3 sequence (P28336 whole entry): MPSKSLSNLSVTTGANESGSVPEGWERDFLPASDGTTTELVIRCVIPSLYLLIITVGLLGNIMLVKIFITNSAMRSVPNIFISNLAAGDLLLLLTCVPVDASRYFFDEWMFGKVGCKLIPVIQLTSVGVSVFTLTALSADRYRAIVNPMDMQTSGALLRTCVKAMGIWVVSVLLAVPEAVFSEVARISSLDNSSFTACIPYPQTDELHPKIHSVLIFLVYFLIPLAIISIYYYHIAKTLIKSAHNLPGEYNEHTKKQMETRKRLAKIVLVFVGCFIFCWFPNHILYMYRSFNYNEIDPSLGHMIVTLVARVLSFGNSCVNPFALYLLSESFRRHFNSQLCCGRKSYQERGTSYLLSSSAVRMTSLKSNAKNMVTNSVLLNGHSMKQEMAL

Compound: NCCNC(=O)Cc1ccc(NC(=O)Cc2ccc(Nc3ncnc4c3ncn4[C@@H]3O[C@H](CO)[C@@H](O)[C@H]3O)cc2)cc1 [ADAC, adenosine amine cogener]
Ki (A3 receptor): 285 nM

Compound: Nc1ncnc2c1ncn2[C@@H]1O[C@H](COP(=O)(O)OP(=O)(O)OP(=O)(O)O)[C@@H](O)[C@H]1O [ATP]
EC50 (P2Y receptors): 2200 ± 600 nM | Class of optical signature (DMR) induced by agonist [1]: first class of optical signatures

Compound: CN([C@@H](Cc1ccc(OS(=O)(=O)c2cccc3cnccc23)cc1)C(=O)N1CCN(c2ccccc2)CC1)S(=O)(=O)c1cccc2cnccc12 [KN 62]
Effect of pretreatment on thrombin-mediated DMR signal [2]: slightly suppressed the thrombin-mediated DMR signal | Effect of pretreatment on trypsin-mediated DMR signal ([3]; 100 or 200 nM trypsin, modulators 10 μM): almost completely abolished the trypsin-mediated DMR signal | Effect on trypsin activity (trypsin): no any obvious effect on the trypsin activity | Effect of pretreatment on 32 nM EGF-induced response [4]: little effect on the response

Compound: CCNC(=O)[C@H]1O[C@@H](n2cnc3c(N)ncnc32)[C@H](O)[C@@H]1O [NECA]
EC50 (adenosine receptors): 21.5 ± 1.2 nM | Ki (A2A receptor): […] | Class of optical signature (DMR) induced by agonist [1]: second class of optical signatures

Maximum increase in intracellular Ca2+ level [5]: 20±5%
Compound: CSCC[C@H](NC(=O)[C@H](CC(C)C)NC(=O)[C@H](Cc1cnc[nH]1)NC(=O)CNC(=O)[C@@H](NC(=O)[C@H](C)NC(=O)[C@H](Cc1c[nH]c2ccccc12)NC(=O)[C@H](CCC(N)=O)NC(=O)[C@H](CC(N)=O)NC(=O)CNC(=O)[C@H](CC(C)C)NC(=O)[C@H](CCCN=C(N)N)NC(=O)[C@H](CCC(N)=O)NC(=O)[C@@H]1CCC(=O)N1)C(C)C)C(N)=O [bombesin]

Compound: NKH447
Effect of pretreatment on epinephrine-mediated DMR response (β2 adrenergic receptor): completely abolished the DMR responses mediated by epinephrine | Class of optical signature (DMR) induced by agonist [1]: an optical signature that is similar to those induced by either β2 or A2 agonists

Compound: epidermal growth factor [EGF]
DMR signals induced by EGF (CHO cells): no clear P-DMR nor B-DMR signal | Effect of pretreatment on mβCD-induced response (quiescent A431 cells): significantly suppressed the mβCD-induced response | Effect of preceding stimulation on trypsin-mediated [Ca2+]i elevation [6]: little effect on the [Ca^2+]i elevation mediated by trypsin | Effect of preceding stimulation on DMR responses mediated by trypsin or thrombin ([3]; EGF 100 nM, 100 nM trypsin, 40 unit/ml thrombin): totally blocked the N-DMR event, but only attenuated the P-DMR event | Kd (EGFR; non-linear regression, read-out: Kd from one-phase decay constant K of the N-DMR signal): 5.76 nM | EC50 (EGFR; read-out: EC50 from amplitudes of the N-DMR signals vs EGF concentration): ~1.45 nM

EC50 (MC receptors): 9 ± 1.6 nM
Compound: α-melanocyte stimulating hormone [α-MSH]
Class of optical signature (DMR) induced by agonist [1]: third class of optical signatures
